Laboratory results published in BindingDB's records for doi:10.1016/j.bmc.2011.09.058 (National Chemical Laboratory (Csir-Ncl), 2011).

Target: T1, Papain (Carica papaya, UniProt P00784)
T1 sequence (P00784 whole entry): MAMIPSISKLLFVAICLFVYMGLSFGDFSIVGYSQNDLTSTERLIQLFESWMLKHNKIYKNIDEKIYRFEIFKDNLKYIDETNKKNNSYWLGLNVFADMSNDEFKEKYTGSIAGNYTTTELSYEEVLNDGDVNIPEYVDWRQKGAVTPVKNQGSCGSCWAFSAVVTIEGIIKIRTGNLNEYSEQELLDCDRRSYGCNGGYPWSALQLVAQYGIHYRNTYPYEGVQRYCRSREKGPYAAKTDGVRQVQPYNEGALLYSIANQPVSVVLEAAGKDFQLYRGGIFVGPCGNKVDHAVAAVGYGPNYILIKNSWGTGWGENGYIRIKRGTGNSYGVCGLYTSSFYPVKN
Test: Inhibition of papaya papain using BAPNA as substrate assessed as p-nitroaniline release by spectrophotometric analysis

Compound	IC50
CCOP(=O)(CC=C(NC(=O)[C@H](CC(C)C)NC(=O)OCc1ccccc1)c1ccccc1)OCC	> 200 µM
CCOP(=O)(CC=C(NC(=O)[C@H](CC(C)C)NC(=O)OC(C)(C)C)c1ccccc1)OCC	> 200 µM
CCOP(=O)(CC=C(NC(=O)[C@H](Cc1c[nH]c2ccccc12)NC(=O)OCc1ccccc1)c1ccccc1)OCC	> 200 µM
CCOP(=O)(CC=C(NC(=O)[C@H](CC(C)C)NC(=O)OCC1c2ccccc2-c2ccccc21)c1ccccc1)OCC	> 200 µM
